According to patent US20250302862A1, “SMALL RNA DRUG FOR INHIBITING ACTIVITY OF CANCER CELLS” (Institute of Basic Medical Sciences Chinese Academy of …, priority 2022, published 2025):

Columns and labels:
[1] = tested on: A549 cells; test: Concentration-dependent proliferation inhibition, MTS; format: cell-based, human; details: concentration gradient, MTS 48 h after transfection
Experimental: (§1) 1) H460 and A549 cells with a cell density of more than 90% in 10 cm^2 dishes were plated in 96-well plates according to the cell growth rate, and transfected after 12 h, and the groups (3 wells per group) were divided as follows: • BLANK group: 20 uL of opti-MEM • negative control group (NC group) and experimental group: • A. 10 uL of opti-MEM and 0.2 uL of iMax were mixed well for 5 min • B. 10 uL of opti-MEM and small RNA were mixed well (the concentration gradient of H460 cell experimental group was set as: 0.01 noml/L, 0.03 noml/L, 0.1 noml/L, 0.39 noml/L, 0.78 noml/L, 1.56 noml/L, 3.125 noml/L, 6.25 noml/L, 12.5 noml/L, 25 noml/L, 50 noml/L, 100 noml/L; the concentration gradient of A549 cell experimental group was set as: 0.01 noml/L, 0.03 noml/L, 0.1 noml/L, 0.3 noml/L, 1 noml/L, 3 noml/L, 10 noml/L, 30 noml/L, 100 noml/L, 300 noml/L; the final concentration of sRNA in NC group was 100 noml/L) • C. solution A and solution B were mixed well and let stand for 15 min, and then was added at a 20 ul/well system • Note: 100 uL of nuclease-free water was added to 2 nmol of small RNA dry powder for dissolution at a storage concentration of 20 umol/L
(§2) 2) Detection of cell viability: MTS detection was performed after 48 h.
(§3) Formulation of MTS detection solution was as follows: opti-MEM:MTS A solution:MTS B solution=100:20:1. After removing the supernatant, 100 uL of MTS detection solution was added to each well and incubated for 0.5-2 h. Absorbance values at wavelengths of 490 nm and 630 nm were measured in a microplate reader.
(§4) 1) H460 and A549 cells with a cell density of more than 90% in 10 cm^2 dishes were plated in 96-well plates according to the cell growth rate, and transfected after 12 h, and the groups (3 wells per group) were divided as follows: • blank control group: 20 uL of opti-MEM • negative control group (NC group) and experimental group: • A. 10 uL of opti-MEM and 2 uL of iMax were mixed well for 5 min • B. 10 uL of opti-MEM and small RNA were mixed well (the concentration gradient of H460 cell experimental group was set as: 0.01 noml/L, 0.03 nmol/L, 0.1 noml/L, 0.3 noml/L, 1 noml/L, 3 noml/L, 10 noml/L, 30 noml/L, 100 noml/L, 300 noml/L, 400 noml/L, 500 noml/L; the concentration gradient of A549 cell experimental group was set as: 0.01 noml/L, 0.03 nmol/L, 0.1 noml/L, 0.3 noml/L, 1 noml/L, 3 noml/L, 10 noml/L, 30 noml/L, 100 noml/L, 300 noml/L; the final concentration of sRNA in NC group was 100 noml/L) • C. solution A and solution B were mixed well and let stand for 15 min, and then was added to each well at a 20 uL system • positive group: the concentration of paclitaxel was adjusted to 100 nmol/L • Note: 100 uL of nuclease-free water was added to 2 nmol of small RNA dry powder for dissolution at a storage concentration of 20 umol/L
(§5) 1) H460 and A549 cells with a cell density of more than 90% in 10 cm^2 dishes were plated in 96-well plates according to the cell growth rate, and transfected after 12 h, and the groups (3 wells per group) were divided as follows: • blank control group: 20 uL of opti-MEM • negative control group (NC group) and experimental group: • A. 10 uL of opti-MEM and 0.2 uL of iMax were mixed well for 5 min • B. 10 uL of opti-MEM and small RNA were mixed well (the concentration gradient of H460 cell experimental group was set as: 0.1 noml/L, 0.3 noml/L, 1 noml/L, 3 noml/L, 10 noml/L, 30 noml/L, 100 noml/L, 300 noml/L; the concentration gradient of A549 cell experimental group was set as: 0.01 noml/L, 0.03 nmol/L, 0.1 noml/L, 0.3 noml/L, 1 noml/L, 3 noml/L, 10 noml/L, 30 noml/L, 100 noml/L, 300 noml/L; the final concentration of sRNA in NC group was 100 noml/L) • C. solution A and solution B were mixed well and let stand for 15 min, and then a 20 uL system was added at a 20 uL system • Note: 100 uL of nuclease-free water was added to 2 nmol of small RNA dry powder for dissolution at a storage concentration of 20 umol/L

[2] = tested on: H460 cells; test: as above; format: cell-based, human; details: concentration gradient, MTS 48 h after transfection
Experimental: as §1, §2, §3, §4, §5

[3] = tested on: primary lung cancer Kras^LSL-G12Dp53^fl/fl (KP) mouse model; test: Tumor burden of mice with primary lung cancer (HE lung sections); format: in vivo; details: 10 nmol daily by gavage for one month, sphingosine(d18:1) delivery system, HE-stained left lung section, vs NC group
From the text: The mouse model of primary lung cancer was Kras^LSL-G12Dp53^fl/fl (KP).
Mice were weighed and assigned to the negative control group (NC group) and HQi-sRNA-2 group randomly. The NC group was the negative control, in which a sphingosine(d18:1)-NC-sRNA herbal medicine delivery system was constructed from NC-sRNA. The HQi-sRNA-2 group was the experimental group, in which a sphingosine(d18:1)-HQi-sRNA-2 herbal medicine delivery system was constructed from HQi-sRNA-2.
The herbal medicine delivery system was constructed by heating and mixing 10 nmol of sRNA, 100 ug of sphingosine(d18:1) and 300 ul of sterile enzyme-free water in a water bath at 90° C. for 15 minutes.
Each mouse with a uniform body weight was dosed by gavage. Each mouse was given 10 nmol of HQi-sRNA-2 mimic daily by gavage for one month.
The lungs of mice were collected to prepare pathological sections. The left lung was collected and sliced at the largest surface for every mouse, and stained with HE. The area of tumor in the whole pathological section was counted, the tumor burden was calculated, and statistical analysis was performed.
Mice were weighed and assigned to the negative control group (NC group), MDM-sRNA-39 group and MDM-sRNA-163 group randomly. The NC group was the negative control, in which a sphingosine(d18:1)-NC-sRNA herbal medicine delivery system was constructed from NC-sRNA. The MDM-sRNA-39 group was an experimental group, in which a sphingosine(d18:1)-MDM-sRNA-39 herbal medicine delivery system was constructed from MDM-sRNA-39. The MDM-sRNA-163 group was an experimental group, in which a sphingosine(d18:1)-MDM-sRNA-163 herbal medicine delivery system was constructed from MDM-sRNA-163.

Substance | proliferation-inhibiting function (cell activity, MTS) [1] | proliferation-inhibiting function (cell activity, MTS) [2] | tumor burden of mice with primary lung cancer [3]
HQi-sRNA-2: small RNA derived from Scutellaria baicalensis, sequence AUGGUUCGAUUCCGGAGAGGG (listed as RNA, chemistry not given here) | concentration-dependent | concentration-dependent | significantly reduced
MDM-sRNA-39: small RNA derived from Maytenus hookeri, sequence GGGAUUGUAGUUCAAUUGGUCAGAGCACC (listed as RNA, chemistry not given here) | concentration-dependent | concentration-dependent | significantly reduced
MDM-sRNA-163: small RNA derived from Maytenus hookeri, sequence UGACUCUAGUCCGACUUUGUGAAAUGACU (listed as RNA, chemistry not given here) | concentration-dependent | concentration-dependent | significantly reduced
